Drawing on patent US20160193216A1 (Nimbus Iris, Inc., priority 2012, published 2016), this text covers IC50 for 19 molecules.

Assay [1] deals with T1, IRAK4 (Homo sapiens, UniProt Q9NWZ3).
T1 sequence (Q9NWZ3 1-460): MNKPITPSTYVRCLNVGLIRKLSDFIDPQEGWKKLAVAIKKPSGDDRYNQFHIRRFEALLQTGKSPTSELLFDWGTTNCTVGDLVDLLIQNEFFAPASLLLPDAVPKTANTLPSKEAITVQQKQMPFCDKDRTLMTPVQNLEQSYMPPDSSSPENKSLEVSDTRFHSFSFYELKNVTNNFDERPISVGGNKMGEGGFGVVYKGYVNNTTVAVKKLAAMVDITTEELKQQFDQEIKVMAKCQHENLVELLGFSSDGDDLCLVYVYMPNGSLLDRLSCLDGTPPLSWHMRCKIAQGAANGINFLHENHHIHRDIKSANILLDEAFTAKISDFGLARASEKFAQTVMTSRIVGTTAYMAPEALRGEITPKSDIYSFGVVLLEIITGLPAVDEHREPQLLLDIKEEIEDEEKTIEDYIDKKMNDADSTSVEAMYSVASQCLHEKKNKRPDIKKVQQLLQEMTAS
The assay is described as follows: IRAK-4 activity inhibition assay (Caliper). Format: biochemical. Particulars: 37 μM ATP, 3.5 nM IRAK4.

Assay [2] deals with THP-1 cells. The assay is described as follows: LPS induced cytokine (TNFα and IL8) production assay in THP-1 cells. Format: cell-based. As to conditions: Homo sapiens, 300 ng/mL LPS. The method, then:
Cytokine Production Assay
Provided compounds were also assayed in an LPS (Lipopolysacharide) or R848 (TLR-7 agonist) induced cytokine (TNFα and IL8) production assay in THP-1 cells, human peripheral blood mononuclear cells (hPBMC), and whole blood. The exemplary protocol for this assay in THP-1 cells was as follows below.
THP-1 cells from ATCC (TIB-202) were cultured in RPMI Medium 1640 (Invitrogen, Cat No. A10491-01), 10% fetal bovine serum (Invitrogen, Cat No. 10099141, Lot No. 8172882) containing 100 U/mL Penicillin, 100 μg/mL streptomycin (Invitrogen, Cat No. 15140-122), and 50 uM 2-Mercaptoethanol (Invitrogen, Cat No. 21985023). LPS-EK ultra pure (Invivogen, Cat No. tlrl-peklps) was used to induce IL8 and TNFα production, that was detected in the cell culture supernatant by IL8 HTRF kit (Cisbio, Cat No. 62IL8PEB) and TNFα HTRF kit (Cisbio, Cat No. 62TNFPEB), as per manufacturer instructions. Cells were cultured in 96 well assay plates at 100,000 cells per well, and compounds diluted in final 0.3% DMSO were pre-incubated with cells for 1 hour prior to stimulation with 300 ng/mL LPS. Cytokine production in cell supernatant was measured at 5 hours for TNFα and IL8 production, and for 16 hours for IL8 production and assessment of cell viability.
The compound numbers correspond to the compound numbers in Table 1. […] “NA” stands for “not assayed.”

Usually IC50 stands for the midpoint of a concentration-inhibition curve.

Counter-ions that a name gives are not always drawn. Like-named read-outs stand apart in the source and are kept apart here.

`CN(C)[C@H]1CC[C@H](Oc2ncnc3sc4c(c23)CC(CCO)CC4)CC1` (some centres unmarked) [Compound I-108, 2-[3-[[4-(dimethylamino)cyclohexyl]oxy]-8-thia-4,6-diazatricyclo[7.4.0.0[2,7]]trideca-1(9),2(7),3,5-tetraen-12-yl]ethan-1-ol formate]: the IC50 is under 5000 nM in assay [1] and 1000 to 5000 nM in assay [2] (read-out: TNFα production IC50).

Turning to `CC[C@@H](O)C[C@H]1CCc2sc3ncnc(O[C@H]4CC[C@H](N5CCOCC5)CC4)c3c21` [Compound I-65, (R)-1-((R)-4-(((1r,4R)-4-morpholinocyclohexyl)oxy)-6,7-dihydro-5H-cyclopent[4,5]thieno[2,3-d]pyrimidin-5-yl)butan-2-ol], the results for the IC50 in assay [1], in assay [2] (read-out: IL8 production IC50) and in assay [2] (read-out: TNFα production IC50) were under 5000 nM, 1000 to 5000 nM and 500 to 1000 nM, respectively.

With `C[C@H](O)C[C@H]1CCc2sc3ncnc(O[C@H]4CC[C@H](N5CCOCC5)CC4)c3c21` [Compound I-83, (S)-1-((R)-4-(((1 r,4R)-4-morpholinocyclohexyl)oxy)-6,7-dihydro-5H-cyclopenta[4,5]thieno[2,3-d]pyrimidin-5-yl)propan-2-ol], the IC50 in assay [1] was under 5000 nM; in assay [2] (read-out: TNFα production IC50), 500 to 1000 nM.

Consider `C[C@H](O)C[C@H]1CCc2sc3ncnc(O[C@H]4CC[C@H](N(C)C)CC4)c3c21` [Compound I-40, (2S)-1-[(3R)-12-[[4-(dimethylamino)cyclohexyl]oxy]-7-thia-9,11-diazatricyclo[6.4.0.0[2,61]]dodeca-1(8),2(6),9,11-tetraen-3-yl]propan-2-ol], for which the IC50 in assay [1] is under 5000 nM; in assay [2] (read-out: IL8 production IC50) it was 1000 to 5000 nM; in assay [2] (read-out: TNFα production IC50), 1000 to 5000 nM.

For `CN(C)[C@H]1CC[C@H](Oc2ncnc3sc4c(c23)[C@@H](CC(N)=O)CC4)CC1` [Compound I-43, 2-[(3R)-12-[[4-(dimethylamino)cyclohexyl]oxy]-7-thia-9,11-diazatricyclo[6.4.0.0[2,6]]dodeca-1(8),2(6),9,11-tetraen-3-yl]acetamide], the IC50 was under 5000 nM in assay [1], 500 to 1000 nM in assay [2] (read-out: IL8 production IC50) and 500 to 1000 nM in assay [2] (read-out: TNFα production IC50).

For the molecule `NC(=O)[C@H]1CCc2sc3ncnc(N[C@H]4CC[C@H](N5CCOCC5)CC4)c3c2C1` [Compound I-207, (12S)-3-[[4-(morpholin-4-yl)cyclohexyl]amino]-8-thia-4,6-diazatricyclo[7.4.0.0[2,7]]trideca-1(9),2(7),3,5-tetraene-12-carboxamide], the IC50 is under 5000 nM in assay [1], 1000 to 5000 nM in assay [2] (read-out: IL8 production IC50) and 1000 to 5000 nM in assay [2] (read-out: TNFα production IC50).

For `CN(C)[C@H]1CC[C@H](Oc2ncnc3sc4c(c23)[C@@H](CC(F)(F)C(N)=O)CC4)CC1` [Compound I-144, 3-[(3R)-12-[[4-(dimethylamino)cyclohexyl]oxy]-7-thia-9,11-diazatricyclo[6.4.0.0[2,6]]dodeca-1(8),2(6),9,11-tetraen-3-yl]-2,2-difluoropropanamide], the IC50 in assay [1] is under 5000 nM; in assay [2] (read-out: IL8 production IC50), at most 500 nM; in assay [2] (read-out: TNFα production IC50) it was at most 500 nM.

`NC(=O)[C@@H](O)C[C@H]1CCc2sc3ncnc(N[C@H]4CC[C@H](N5CCOCC5)CC4)c3c21` [Compound I-120, (S)-2-hydroxy-3-((R)-4-(((1r,4R)-4-morpholinocyclohexyl)amino)-6,7-dihydro-5H-cycyclopenta[4,5]thieno[2,3-d]pyrimidin-5-yl)propanamide]: the IC50 in assay [1] is under 5000 nM; in assay [2] (read-out: IL8 production IC50), at most 500 nM; in assay [2] (read-out: TNFα production IC50), at most 500 nM.

In the case of `CN(C)[C@H]1CC[C@H](Oc2ncnc3sc4c(c23)[C@@H](C[C@@H](O)C2CCCO2)CC4)CC1` (stereo partly drawn) [Compound I-88, (1R)-2-((R)-4-(((1r,4R)-4-(dimethylamino)cyclohexyl)oxy)-6,7-dihydro-5H-cyclopenta[4,5]thieno[2,3-d]pyrimidin-5-yl)-1-(tetrahydrofuran-2-yl)ethanol], the IC50 in assay [1] was under 5000 nM; in assay [2] (read-out: IL8 production IC50), 1000 to 5000 nM; in assay [2] (read-out: TNFα production IC50) it was 1000 to 5000 nM.

As for `N#CC(C[C@H]1CCc2sc3ncnc(O[C@H]4CC[C@H](N5CCOCC5)CC4)c3c21)C(N)=O` (stereo partly drawn) [Compound I-86, 2-cyano-3-((R)-4-(((1r,4R)-4-morpholinocyclohexyl)oxy)-6,7-dihydro-5H-cyclopenta[4,5]thieno[2,3-d]pyrimidin-5-yl)propanamide], the IC50 is under 5000 nM in assay [1] and 1000 to 5000 nM in assay [2] (read-out: TNFα production IC50).

Regarding `CCN[C@H]1CC[C@H](Oc2ncnc3sc4c(c23)[C@@H](C[C@H](O)C(N)=O)CC4)CC1` [Compound I-136, (2S)-3-[(3R)-12-[[4-(ethylamino)cyclohexyl]oxy]-7-thia-9,11-diazatricyclo[6.4.0.0[2,6]]dodeca-1(8),2(6),9,11-tetraen-3-yl]-2-hydroxypropanamide], the results for the IC50 in assay [1], in assay [2] (read-out: IL8 production IC50) and in assay [2] (read-out: TNFα production IC50) were under 5000 nM, at most 500 nM and 500 to 1000 nM, respectively.

In the case of `CN(CC(=O)N1CCCC1)[C@H]1CC[C@H](Oc2ncnc3sc4c(c23)[C@@H](CCC(N)=O)CC4)CC1` [Compound I-94, 3-((S)-4-(((1r,4S)-4-(methyl(2-oxo-2-(pyrrolidin-1-yl)ethyl)amino)cyclohexyl)oxy)-6,7-dihydro-5H-cyclopenta[4,5]thieno[2,3-d]pyrimidin-5-yl)propanamide], the IC50 is under 5000 nM in assay [1] and at least 5000 nM in assay [2] (read-out: TNFα production IC50).

Consider `NC(=O)C(F)(F)C[C@H]1CCc2sc3ncnc(O[C@H]4CC[C@H](N5CCOCC5)CC4)c3c21` [Compound I-142, 2,2-difluoro-3-((R)-4-(((1r,4R)-4-morpholinocyclohexyl)oxy)-6,7-dihydro-5H-cyclopenta[4,5]thieno[2,3-d]pyrimidin-5-yl)propanamide], for which the IC50 was under 5000 nM in assay [1], at most 500 nM in assay [2] (read-out: IL8 production IC50) and at most 500 nM in assay [2] (read-out: TNFα production IC50).

Take `NC(=O)C[C@H]1CCc2sc3ncnc(O[C@H]4CC[C@H](N5CCC(F)(F)CC5)CC4)c3c21` [Compound I-229, 2-[(3R)-12-[[4-(4,4-difluoropiperidin-1-yl)cyclohexyl]oxy]-7-thia-9,11-diazatricyclo[6.4.0.0[2,6]]dodeca-1(8),2(6),9, 11-tetraen-3-yl]acetamide]: the concentration for half-maximal inhibition (IC50) was under 5000 nM in assay [1], 500 to 1000 nM in assay [2] (read-out: IL8 production IC50) and at most 500 nM in assay [2] (read-out: TNFα production IC50).

For the molecule `CN(C)[C@H]1CC[C@H](Oc2ncnc3sc4c(c23)[C@@H](CCC#N)CC4)CC1` [Compound I-42, 3-[(3S)-12-[[4-(dimethylamino)cyclohexyl]oxy]-7-thia-9,11-diazatricyclo 1[6.4.0.0[2,6]]dodeca-1(8),2(6),9,11-tetraen-3-yl]propanenitrile], the results for the concentration for half-maximal inhibition (IC50) in assay [1], in assay [2] (read-out: IL8 production IC50) and in assay [2] (read-out: TNFα production IC50) were under 5000 nM, at most 500 nM and at most 500 nM, respectively.

As for `CN(CC(=O)N1CCCC1)[C@H]1CC[C@H](Oc2ncnc3sc4c(c23)[C@@H](C[C@H](O)C(N)=O)CC4)CC1` [Compound I-149, (2S)-2-hydroxy-3-[(3R)-12-[(4-[methyl[2-oxo-2-(pyrrolidin-1-yl)ethyl]amino]cyclohexyl)oxy]-7-thia-9,11-diazatricyclo[6.4.0.0̂[2,6]]dodeca-1(8),2(6),9,11-tetraen-3-yl]propanamide], the IC50 in assay [1] was under 5000 nM; in assay [2] (read-out: IL8 production IC50), 1000 to 5000 nM; in assay [2] (read-out: TNFα production IC50) it was 1000 to 5000 nM.

Regarding `[2H]C1([2H])c2sc3ncnc(O[C@H]4CC[C@H](N5CCOCC5)CC4)c3c2[C@@H](CC(N)=O)C1([2H])[2H]` [Compound I-188, 2-[(3R)-12-[[4-(morpholin-4-yl)cyclohexyl]oxy](4,4,5,5-d4)-7-thia-9, 11-diazatricyclo[6.4.0.0[2,6]]dodeca-1(8),2(6),9, 11-tetraen-3-yl]acetamide-d4], the IC50 in assay [1] is under 5000 nM; in assay [2] (read-out: IL8 production IC50) it was at most 500 nM; in assay [2] (read-out: TNFα production IC50) it was 500 to 1000 nM.

On to `CN(C)[C@H]1CC[C@H](Nc2ncnc3sc4c(c23)C[C@@H](C(N)=O)CC4)CC1` [Compound I-230, (12S)-3-[[4-(dimethylamino)cyclohexyl]amino]-8-thia-4,6-diazatricyclo[7.4.0.0[2,7]]trideca-1(9),2(7),3,5-tetraene-12-carboxamide], for which the IC50 in assay [1] was under 5000 nM; in assay [2] (read-out: IL8 production IC50), at least 5000 nM; in assay [2] (read-out: TNFα production IC50) it was at least 5000 nM.

For the molecule `CN(C)[C@H]1CC[C@H](Oc2ncnc3sc4c(c23)[C@@H](CCO)CC4)CC1` [Compound I-34, 2-[(3R)-12-[[4-(dimethylamino)cyclohexyl]oxy]-7-thia-9,11-diazatricyclo[6.4.0.0[2,6]]dodeca-1(12),2(6),8,10-tetraen-3-yl]ethan-1-ol], the IC50 is under 5000 nM in assay [1], 1000 to 5000 nM in assay [2] (read-out: IL8 production IC50) and 1000 to 5000 nM in assay [2] (read-out: TNFα production IC50).
